How the values were obtained:
Type in all cases: cell-based
phospho-NFκB = test: Western blotting onto NFκB and phospho-NFκB in JFH-1 infected Huh 7.5.1 cells; conditions: 100 μM, 72 hours
Source text: Conducted western blotting onto NFκB and phospho-NFκB which are transcription factors of virus suppression mechanism of ginsenosides to a hepatoma cell line.
Specifically, it is known that when cells are infected with hepatitis C viruses, TNF-α in the cells increases and, apoptosis actions in the cells increases due to an anti-apoptotic factor, NFkB decreases. Additionally, identification of phosphor-NFκB among NFκB (total) is important to know activation level of NFκB.
Herein, western blotting analysis onto NFκB and phospho-NFκB, transcription factors, was carried out to identify the TNF-α mediated apoptotic signaling pathway. The TNF-α is induced by Hepatitis C. The analysis was conducted 72 hours after the samples of Huh 7.5.1 cells treated with each 100 μM of seven ginsenosides (Ro, Re, Rg1, Rg2, Rg3, Rh1, Rh2) as above stated in Example 3.
Specifically, the western blotting analysis was carried out as follow. First, the above described samples were prepared, mixed with a sample buffer in tubes and heated at 100° C. for 10 minutes. The tubes were cooled on ice and centrifuged. The electrophoresis was carried out with the prepared samples and molecular weight markers were put in. And then, they were transferred to a PVDF membrane (hydrophobic). After blocking with 5% skin milk for an hour, primary antibodies of NFκB and phospho-NFκB were added. […]

thioredoxin = test: Western blotting against thioredoxin in JFH-1 infected Huh 7.5.1 cells; conditions: 100 μM, 72 hours
Method: To examine the ginsenoside Rg3 effect onto anti-oxidant enzymes, western blotting analysis against thioredoxin, an anti-oxidant enzyme induced by Hepatitis C, was carried out. the analysis was conducted 72 hours after the samples of Huh 7.5.1 cells treated with each 100 μM of seven ginsenosides (Ro, Re, Rg1, Rg2, Rg3, Rh1, Rh2) as described above in the Example 3.
Specifically, western blotting analysis was carried out as follow. First, the above described samples were prepared, mixed with a sample buffer in tubes, and heated at 100° C. for 10 minutes. The tubes were cooled on ice and centrifuged. The electrophoresis was carried out with the prepared samples and molecular weight markers were put in. And then, they were transferred to a PVDF membrane (hydrophobic). After blocking with 5% skin milk for an hour, primary antibodies of thioredoxin was added. After staying overnight at 4° C., washing three times for every 10 minutes, blocking with 5% skin milk for an hour at the room temperature was carried out. After that, each secondary antibody was added and waited one hour for its reaction and washing three times for every 10 minutes were carried out. Then, the membrane was stained by 1:1 mixture of detection reagents A (Luminol Enhancer solution) and B (Peroxide solution) and developed with X ray film.

[1] = test system: Huh 7.5.1 cells infected with JFH-1 virus; test: Microscopic identification of virus suppression effect (cell shape, phase contrast microscope); conditions: 100 μM, JFH-1 infected
Method: About 200,000 Huh 7.5.1 cells were added to a 60×15 mm cell culture dish and every 100 μM of seven ginsenosides (Ro, Re, Rg1, Rg2, Rg3, Rh1, Rh2) per 60×15 mm cell culture dish each was treated. Since it was necessary for ginsenosides in powder formulation to make solutions for the experiments, 50 mM basic concentration solutions for the seven ginsenosides each were prepared and the basic solutions were refrigerated at 4° C. until they were needed.
Non-treatment group (Control), Non-treatment group and DMSO 10 μl treatment group (Control+DMSO 10 μl), JFH-1 virus treatment group (Only JFH-1), JFH-1 virus and DMSO 10 μl treatments group (JFH-1+DMSO 10 μl), JFH-1 virus and Ro 100 uM treatments group (JFH-1+Ro 100 uM), JFH-1 virus and Re 100 uM treatments group (JFH-1+Re 100 uM), JFH-1 virus and Rg1 100 uM treatments group (JFH-1+Rg1 100 uM), JFH-1 virus and Rg2 100 uM treatments group (JFH-1+Rg2 100 uM), JFH-1 virus and Rg3 100 uM treatments group (JFH-1+Rg3 100 uM), JFH-1 virus and Rh1 100 uM treatments group (JFH-1+Rh1 100 uM), JFH-1 virus and Rh2 100 uM treatments group (JFH-1+Rh2 100 uM), JFH-1 virus and Rg1 100 uM treatments group (JFH-1+Rg1 100 uM).
The experiment was carried out as follow. First, 200,000 Huh 7.5.1 cells were placed in a 60×15 mm cell culture dish. Next day, Japanese Fulminant Hepatitis-1 virus (JFH-1) stock vial which was stored in −70° C. refrigerator was taken out and thawed out in a container filled with ice-water. The culture medium was collected from the cultured 60×15 mm cell culture dish, washed with 1×PBS and collected, again. 1.5 ml of JFH-1 virus solution per 60×15 mm cell culture dish each was added. The dish was shaken to cover the surface sufficiently. The dish was laid in a 5% CO2 incubator at 37° C. for 6 hours and after that, the supernatant was draw out. 1×PBS was spread on the cell surface as slow as possible and after one time washing, cells were collected. 5 ml of cell culture media was added to control and JFH-1 treatments groups. At the last step of virus-infection, 5 ml CM and each […] of ginsenosides which was set to 50 mM concentration were added to the cell culture media. After that, the cell culture media was laid in a 5% CO2 incubator at 37° C. After 72 hours, the following steps were carried out.
As described in the above Example 3, each 100 μM of seven ginsenosides (Ro, Re, Rg1, Rg2, Rg3, Rh1, Rh2) was treated to Huh 7.5.1 cells. After 24 hours and 72 hours, the shapes of Huh 7.5.1 cells were observed using a phase contrast microscope (ECLIPSE TE300, Nicon) of 400× magnifications.

TNF-α = test: Real-time PCR for TNF-α level in virus-infected Huh 7.5.1 cells
Method: To identify a mechanism of apoptosis action, virus-infected Huh 7.5.1 cells were treated with ginsenoside Rg3 and conducted real-time PCR (Taqman Real-time Quantitative RT-PCR Assay for HCV RNA Detection) to estimate TNF-α level.
First, a total number of 50,000 Huh 7.5.1 cells were incubated in 24 well and a total RNA was extracted from the above stated treated cells using Rneasy mini kit (QIAGEN Corp.). And then, the total RNA was quantified by Nanodrop 1000 (Thermo Scientific Corp.), and manufactured cDNA by conducting RT PCR (Reverse Transcription-PCR) using i cycler, (BIO-RAD Co.). After the synthesized cDNAs were reacted with TaqMan GX Master Mix (Applied Biosystems, Branchburg, N.J.), TNF-α, B-actin mRNAs were quantified by 96 well real-time PCR (StepOne Plus Sequence detector system, Applied Biosystems). Verified primer/probe set was purchased to conduct the TaqMan Gene Expression assay in this experiment (Gene: TNF-α (TNF-alpha) # Hs01113624_g1, Gene Symbol: ACTB # Hs99999903_m1).

With CC(C)=CCC[C@](C)(O)[C@H]1CC[C@]2(C)[C@@H]1[C@H](O)C[C@@H]1[C@@]3(C)CC[C@H](O[C@@H]4O[C@H](CO)[C@@H](O)[C@H](O)[C@H]4O[C@@H]4O[C@H](CO)[C@@H](O)[C@H](O)[C@H]4O)C(C)(C)[C@@H]3CC[C@]12C [ginsenoside Rg3] the apoptosis of cells (phospho-NFκB) was “remarkably decreased”, the thioredoxin (thioredoxin) was “decreased” and the “shapes of Huh 7.5.1 cells” value ([1]; 24 hours after treatment) was “fuses cells”. For the same compound, the “shapes of Huh 7.5.1 cells” value ([1]; 72 hours after treatment) was “fuses cells” and the “level of TNF-α” value (TNF-α) was “remarkably decreased”.

Reference: patent US8865659B2, “Compositions for prevention or treatment of Hepatitis C virus containing ginsenoside Rg3 as an active ingredient” (priority 2012, dated 2014)
